Numbering of substitutions follows the chain as printed. Like-named read-outs stand apart in the source and are kept apart here. Residues, ends and D or L forms follow the SMILES beside them. No end group written: not given here.
Legend:
[1] = molecular target: HLA-DR15 (DRB1*1501) (Homo sapiens, UniProt P01903+P01911); test: Competitive HLA II/peptide binding assay, HLA-DR15; conditions: competition with biotinylated tracer; 3 independent experiments
[2] = molecular target: HLA-DRB4 (DRB4*0101) (Homo sapiens, UniProt P01903+P13762, G164S); test: Competitive HLA II/peptide binding assay, HLA-DRB4; conditions: competition with biotinylated tracer; 3 independent experiments
[3] = molecular target: T1, HLA-DP402 (DP*0402) (Homo sapiens, UniProt P04440+P20036, A65V/A84D/A85E/L207M); test: biochemical; conditions: competition with biotinylated tracer; 3 independent experiments; read-out: Binding activity DP402 (IC50)
T1 sequence (P04440 30-258 A65V/A84D/A85E): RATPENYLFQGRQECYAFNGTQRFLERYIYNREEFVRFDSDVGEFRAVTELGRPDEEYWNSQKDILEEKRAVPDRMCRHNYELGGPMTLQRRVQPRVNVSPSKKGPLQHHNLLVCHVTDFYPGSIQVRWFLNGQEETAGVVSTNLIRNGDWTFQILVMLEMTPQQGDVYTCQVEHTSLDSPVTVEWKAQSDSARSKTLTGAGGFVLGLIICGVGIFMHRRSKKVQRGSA
T1 sequence (P20036 29-260): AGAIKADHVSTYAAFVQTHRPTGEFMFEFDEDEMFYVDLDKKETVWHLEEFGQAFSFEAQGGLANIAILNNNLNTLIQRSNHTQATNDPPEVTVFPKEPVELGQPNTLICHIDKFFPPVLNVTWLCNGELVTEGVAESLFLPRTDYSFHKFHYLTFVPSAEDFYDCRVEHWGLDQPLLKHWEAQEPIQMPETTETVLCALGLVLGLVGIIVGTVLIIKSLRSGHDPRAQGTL

[4] = test system: 12 predominant HLA II molecules; test: Binding to the 12 predominant HLA II molecules, summary; design: species or system human; conditions: for No. of molecules fixed: number of the 12 predominant HLA II molecules bound (IC50 < 1000 nM)
Excerpt: The assays for binding to HLA II molecules are competitive binding assays with immunoenzymatic visualization, as described in U.S. Pat. No. 6,649,166, Texier et al., J. Immunol., 2000, 164, 3177-3184 and Texier et al., Eur. J. Immunol., 2001, 31, 1837-1846, for the HLA-DR molecules, and in PCT international application WO 03/040299 and Castelli et al., J. Immunol., 2002, 169, 6928-6934, for the HLA-DP4 molecule. The use of these assays for measuring the binding activity of peptides derived from various antigens is illustrated in U.S. Pat. No. 6,649,166 and PCT international applications WO 02/090382, WO 03/040299 and WO 2004/014936.
The sensitivity of each assay is reflected by the IC50 values observed with the nonbiotinylated peptides which correspond to the tracers; the IC50 values of the tracers vary by a factor of less than three.

[5] = molecular target: T2, HLA-DP401 (DP*0401) (Homo sapiens, UniProt P04440+P20036); test: biochemical; conditions: competition with biotinylated tracer; 3 independent experiments; read-out: Binding activity DP401 (IC50)
T2 sequence (P04440 30-258): T1 sequence (P04440 30-258 A65V/A84D/A85E) with V36A, D55A, E56A
T2 sequence (P20036 29-260): T1 sequence (P20036 29-260)

[6] = test system: HLA-DP4-restricted CD4+ T lymphocyte lines; test: Immunogenicity in an HLA-DP4 context, IFN-γ ELISPOT; assay type: cell-based, human; conditions: for Number of spots: peptide presented by HLA-DP4, mean (±SD)
Protocol: HLA-DP4-restricted survivin-specific CD4+ T lymphocyte lines were produced using the mixture of peptides 84-98, 93-107, 90-104 and 19-33 for the stimulation of the autologous dendritic cells, according to a protocol similar to that use for the production of T lymphocyte lines restricted to the set of HLA-DR molecules predominant in the Caucasian population.
The anti-IFN-γ human monoclonal antibody 1-D1K (MABTECH), diluted to 10 μg/ml in PBS buffer, was adsorbed onto nitrocellulose plates (Multiscreen HA; Millipore) for 1 hour at 37° C. The plates were subsequently washed with PBS and then saturated with complete IMDM medium (100 μl/well), for 1 h at 37° C. The antigen-presenting cells are autologous PBMCs, immature autologous dendritic cells prepared as specified above, or a mouse fibroblast line (line L), transfected with the cDNA encoding one of the HLA-DR or HLA-DP4 molecules to be tested (Yu et al. Hum. Immunol. 1990, 27, 132-135), so as to verify the specificity of the lines with respect to the HLA-DR and HLA-DP4 molecules. The antigen-presenting cells (10^5 autologous PBMCs, 3×10^4 transfected L cells or 2×10^4 immature autologous dendritic cells) and the CD4+ T lymphocytes to be tested (10^4 CD4+ T lymphocytes) were subsequently added to the plates and incubated for 24 h at 37° C., in the presence or absence of a single peptide (2 μg), of a mixture of peptides (2 μg of each peptide) or of a protein (Bir5 or Nef). The proteins (1 μM) are incubated for 4 h at 37° C. in the presence of immature dendritic cells, and then washed. The peptides are added directly to the plates. For the dose-response analyses, the peptides are used at various concentrations ranging from 10^−5 to 10^−10 M. After three successive washes with water, and then with PBS buffer-0.05% Tween and, finally, with PBS alone, 100 μl of biotin-conjugated anti-IFN-γ secondary antibody (7-B6-1-biotin, MABTECH), diluted to 0.25 μg/ml in PBS containing 1% BSA, were added to each well. After incubation for one hour, the plates were washed again and incubated with 100 μl/well of extravidin-phosphatase (E-2636, SIGMA), diluted to 1/6000. After washing of the plates in PBS buffer, 100 μl of NBT/BCIP substrate (B-5655, SIGMA), diluted in water (one tablet in 10 ml of water), were distributed into each well. The immunoenzymatic revelation was stopped after approximately 10 minutes by thorough rinsing of the plates in water, and the colored spots were counted using an automatic reader (ELISPOT reader system, AID). The lines are considered to be positive when the number of spots is greater than three times that obtained with the negative control (control without peptides) with a minimum of 50 spots. The control without presenting cells makes it possible to verify the specificity of the response for HLA-DR or HLA-DP4 (restriction control).

[7] = molecular target: HLA-DR3 (DRB1*0301) (Homo sapiens, UniProt P01903+P01911, A100K/A102G/A103R/A169T/F55Y/I96L/K41T/L162R/M171V/P40S/Q125H/Q178H/Q39Y/R42S/S66N/T106N/T262R/W38E/Y61H); test: biochemical; conditions: competition with biotinylated tracer; 3 independent experiments; read-out: Binding activity DR3 (IC50)
[8] = molecular target: HLA-DR13 (DRB1*1301) (Homo sapiens, UniProt P01903+P01911, A100E/A169T/K41T/L162R/M171V/P40S/Q125H/Q178H/Q39Y/Q99D/R42S/S66N/T262R/W38E/Y61H); test: Competitive HLA II/peptide binding assay, HLA-DR13
[9] = molecular target: HLA-DRB5 (DRB5*0101) (Homo sapiens, UniProt P01903+Q30154); test: Competitive HLA II/peptide binding assay, HLA-DRB5; conditions: competition with biotinylated tracer; 3 independent experiments

## CC[C@H](C)[C@H](NC(=O)[C@H](CCCNC(=N)N)NC(=O)[C@H](Cc1c[nH]cn1)NC(=O)[C@H](CC(=O)O)NC(=O)[C@H](CCCCN)NC(=O)[C@H](CC(C)C)NC(=O)[C@H](Cc1ccccc1)NC(=O)[C@@H]1CCCN1C(=O)[C@H](CCC(N)=O)NC(=O)[C@H](Cc1c[nH]c2ccccc12)NC(=O)[C@H](C)NC(=O)[C@@H]1CCCN1)C(=O)N[C@@H](CO)C(=O)N[C@H](C(=O)N[C@@H](Cc1ccccc1)C(=O)O)[C@@H](C)O [8-22, P A W Q P F L K D H R I S T F]
[1]
  IC50: 5.2 µM
[2]
  IC50: 29 µM
[3]
  IC50: 10.5 µM
[4]
  No. of molecules fixed: 1

## CC(C)C[C@H](NC(=O)[C@H](Cc1ccccc1)NC(=O)[C@@H]1CCCN1C(=O)[C@H](Cc1c[nH]c2ccccc12)NC(=O)[C@H](CC(N)=O)NC(=O)[C@@H](N)CCCCN)C(=O)N[C@@H](CCC(=O)O)C(=O)NCC(=O)N[C@@H](CS)C(=O)N[C@@H](C)C(=O)N[C@@H](CS)C(=O)N[C@H](C(=O)N1CCC[C@H]1C(=O)N[C@@H](CCC(=O)O)C(=O)N[C@@H](CCCNC(=N)N)C(=O)O)[C@@H](C)O [23-37, K N W P F L E G C A C T P E R] (H-KNWPFLEGCACTPER-OH; N-terminus and C-terminus assumed)
[4]
  No. of molecules fixed: 1

## CC(C)C[C@H](NC(=O)[C@H](CC(=O)O)NC(=O)[C@@H]1CCCN1)C(=O)N[C@@H](C)C(=O)N[C@@H](CCC(N)=O)C(=O)N[C@@H](CS)C(=O)N[C@@H](Cc1ccccc1)C(=O)N[C@@H](Cc1ccccc1)C(=O)N[C@@H](CS)C(=O)N[C@@H](Cc1ccccc1)C(=O)N[C@@H](CCCCN)C(=O)N[C@@H](CCC(=O)O)C(=O)N[C@@H](CC(C)C)C(=O)N[C@@H](CCC(=O)O)C(=O)NCC(=O)O [52-66, P D L A Q C F F C F K E L E G] (H-PDLAQCFFCFKELEG-OH; N-terminus and C-terminus assumed)
[4]
  Binding specificity for HLA II molecules: bind only to the HLA-DR11 molecule
  No. of molecules fixed: 1

## CC(C)C[C@H](NC(=O)[C@H](CCC(=O)O)NC(=O)[C@H](CCCCN)NC(=O)[C@H](Cc1ccccc1)NC(=O)[C@H](CS)NC(=O)[C@H](Cc1ccccc1)NC(=O)[C@H](Cc1ccccc1)NC(=O)[C@H](CS)NC(=O)[C@@H](N)CCC(N)=O)C(=O)N[C@@H](CCC(=O)O)C(=O)NCC(=O)N[C@@H](Cc1c[nH]c2ccccc12)C(=O)N[C@@H](CCC(=O)O)C(=O)N1CCC[C@H]1C(=O)N[C@@H](CC(=O)O)C(=O)O [56-70, Q C F F C F K E L E G W E P D] (H-QCFFCFKELEGWEPD-OH; N-terminus and C-terminus assumed)
[4]
  No. of molecules fixed: 1

## CC[C@H](C)[C@H](NC(=O)[C@H](CCCCN)NC(=O)[C@@H](N)CC(N)=O)C(=O)N[C@@H](C)C(=O)N[C@@H](CCCCN)C(=O)N[C@@H](CCC(=O)O)C(=O)N[C@H](C(=O)N[C@@H](CC(N)=O)C(=O)N[C@@H](CC(N)=O)C(=O)N[C@@H](CCCCN)C(=O)N[C@@H](CCCCN)C(=O)N[C@@H](CCCCN)C(=O)N[C@@H](CCC(=O)O)C(=O)N[C@@H](Cc1ccccc1)C(=O)N[C@@H](CCC(=O)O)C(=O)O)[C@@H](C)O [111-125, N K I A K E T N N K K K E F E]
[5]
  IC50: > 100 µM
[3]
  IC50: > 100 µM
[4]
  No. of molecules fixed: 1

## CC[C@H](C)[C@H](N)C(=O)N[C@@H](CO)C(=O)N[C@H](C(=O)N[C@@H](Cc1ccccc1)C(=O)N[C@@H](CCCCN)C(=O)N[C@@H](CC(N)=O)C(=O)N[C@@H](Cc1c[nH]c2ccccc12)C(=O)N1CCC[C@H]1C(=O)N[C@@H](Cc1ccccc1)C(=O)N[C@@H](CC(C)C)C(=O)N[C@@H](CCC(=O)O)C(=O)NCC(=O)N[C@@H](CS)C(=O)N[C@@H](C)C(=O)N[C@@H](CS)C(=O)O)[C@@H](C)O [peptide 19-33, I S T F K N W P F L E G C A C]
[4]
  No. of molecules fixed: 7
[6]; donor 169, line 169-14
  Number of spots: 1 (±0)
[6]; donor 169, line 169-34
  Number of spots: 228 (±17)
[6]; donor 169, line 169-56
  Number of spots: 195 (±0)
[6]; donor 171, line 171-3
  Number of spots: 5 (±0)
[6]; mixture of peptides 84-98, 93-107, 90-104 and 19-33 used for stimulation
  Immunogenicity in an HLA-DP4 context: immunogenic in an HLA-DP4 context

## E E L T L G E F L K L D R E R (EELTLGEFLKLDRER; listed as Homo sapiens) [94-108, 15-mer of human survivin, positions 94-108; insoluble peptide]
[4]
  No. of molecules fixed: 0

## LSVKKQFEELTLGEF [87-101, L S V K K Q F E E L T L G E F]
[7]
  IC50: > 100 µM
[8]; competition with biotinylated tracer, 3 independent experiments, read-out: Binding activity DR13 (IC50)
  IC50: > 100000 nM
[9]
  IC50: 6 µM
[4]
  No. of molecules fixed: 2

## QPFLKDHRISTFKNW [11-25, Q P F L K D H R I S T F K N W]
[4]
  No. of molecules fixed: 2

## TERVRLVTRHIYNREE [B1 21-36, reference compound]
[8]; DRB1*1301, tracer 100 nM, pH 4.5, 72 h, read-out: IC50 (nM) of nonbiotinylated tracer peptide
  IC50: 800 nM
